Source: ChEMBL document CHEMBL1944604, “Aminopurine based JNK inhibitors for the prevention of ischemia reperfusion injury” (Bioorg Med Chem Lett, 2012)
In brackets after ≈: the same amount, converted by molar mass.

Experiments:
[1] = molecular target: Mitogen-activated protein kinase 9 (Homo sapiens, UniProt P45984); experiment: Inhibition of full length Hexa-His-tagged JNK2 using GST-tagged cJun and [gamma33P]ATP as substrate after 60 mins by scintillation counting
[2] = molecular target: Mitogen-activated protein kinase 8 (Homo sapiens, UniProt P45983); experiment: Inhibition of full length Hexa-His-tagged JNK1 using GST-tagged cJun and [gamma33P]ATP as substrate after 60 mins by scintillation counting
[3] = molecular target: Mitogen-activated protein kinase 10 (Homo sapiens, UniProt P53779); experiment: Inhibition of full length Hexa-His-tagged JNK3 using GST-tagged cJun and [gamma33P]ATP as substrate after 60 mins by scintillation counting
[4] = molecular target: Mitogen-activated protein kinase 14 (Homo sapiens, UniProt Q16539); experiment: Inhibition of p38alpha using MBP and [gamma33P]ATP as substrate after 60 mins by scintillation counting
[5] = Metabolic stability in human liver S9 fraction assessed as compound remaining after 60 mins; assay type: ADME, subcellular; conditions: read-out: Stability
[6] = Metabolic stability in rat liver S9 fraction assessed as compound remaining after 60 mins; assay type: ADME, subcellular; conditions: read-out: Stability
[7] = Half life in rat microsomes; assay type: ADME, Microsome
[8] = Half life in human microsomes; assay type: ADME, Microsome
[9] = Aqueous solubility of the compound at pH 7.4; assay type: physicochemical
[10] = molecular target: c-Jun N-terminal kinase, JNK (Homo sapiens, UniProt P45983+P53779+P45984); experiment: Inhibition of JNK-mediated cJun phosphorylation in anisomysin-stimulated human Jurkat T cells pretreated for 30 mins before anisomysin stimulation measured after 10 mins by DELFIA assay; assay type: cell-based
[11] = Thermodynamic solubility of the compound at pH 5; assay type: physicochemical; conditions: buffer, read-out: Therm_solubility
[12] = Volume of distribution at steady state in rat at 2 to 10 mg/kg, iv; assay type: ADME, organism-based; set-up: dose 2-10 mg/kg, route intravenous; conditions: in vivo, read-out: Vdss
[13] = Clearance in rat at 2 to 10 mg/kg, iv; assay type: ADME, organism-based; set-up: dose 2-10 mg/kg, route intravenous; conditions: in vivo
[14] = Aqueous solubility of the compound at pH 5; assay type: physicochemical

Sequence of Mitogen-activated protein kinase 9 (P45984 whole entry): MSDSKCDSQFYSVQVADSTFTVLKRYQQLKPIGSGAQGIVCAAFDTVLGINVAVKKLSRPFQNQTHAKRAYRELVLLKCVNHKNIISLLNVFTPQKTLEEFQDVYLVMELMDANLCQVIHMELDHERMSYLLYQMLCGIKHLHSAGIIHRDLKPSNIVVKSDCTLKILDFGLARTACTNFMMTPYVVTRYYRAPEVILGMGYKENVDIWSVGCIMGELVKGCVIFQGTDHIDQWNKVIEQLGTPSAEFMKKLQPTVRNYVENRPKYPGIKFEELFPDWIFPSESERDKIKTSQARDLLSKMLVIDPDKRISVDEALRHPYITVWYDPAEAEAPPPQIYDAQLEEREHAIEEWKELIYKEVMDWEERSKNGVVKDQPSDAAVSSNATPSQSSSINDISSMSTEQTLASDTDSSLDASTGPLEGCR
Sequence of Mitogen-activated protein kinase 14 (Q16539 whole entry): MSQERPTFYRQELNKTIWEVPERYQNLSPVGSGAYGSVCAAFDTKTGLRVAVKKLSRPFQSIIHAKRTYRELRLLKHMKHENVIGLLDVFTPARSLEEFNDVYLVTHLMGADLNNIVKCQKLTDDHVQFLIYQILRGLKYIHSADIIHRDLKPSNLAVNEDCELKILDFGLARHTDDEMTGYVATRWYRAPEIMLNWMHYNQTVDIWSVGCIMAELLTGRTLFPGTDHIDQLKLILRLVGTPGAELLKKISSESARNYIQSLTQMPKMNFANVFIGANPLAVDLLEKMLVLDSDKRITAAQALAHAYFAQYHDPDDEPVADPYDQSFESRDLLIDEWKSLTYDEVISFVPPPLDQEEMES
Sequence of Mitogen-activated protein kinase 8 (P45983 whole entry): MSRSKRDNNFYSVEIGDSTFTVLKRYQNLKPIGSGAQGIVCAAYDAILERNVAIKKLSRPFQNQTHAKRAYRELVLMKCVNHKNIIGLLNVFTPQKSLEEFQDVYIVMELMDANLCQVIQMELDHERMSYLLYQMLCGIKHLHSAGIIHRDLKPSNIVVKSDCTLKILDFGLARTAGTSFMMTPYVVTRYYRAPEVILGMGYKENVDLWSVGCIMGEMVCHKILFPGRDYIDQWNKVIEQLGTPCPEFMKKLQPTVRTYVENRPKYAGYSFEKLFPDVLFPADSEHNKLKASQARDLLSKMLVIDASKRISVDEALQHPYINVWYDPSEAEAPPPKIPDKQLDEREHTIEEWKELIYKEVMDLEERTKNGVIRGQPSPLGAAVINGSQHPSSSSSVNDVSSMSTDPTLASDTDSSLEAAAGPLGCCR
Sequence of Mitogen-activated protein kinase 10 (P53779 whole entry): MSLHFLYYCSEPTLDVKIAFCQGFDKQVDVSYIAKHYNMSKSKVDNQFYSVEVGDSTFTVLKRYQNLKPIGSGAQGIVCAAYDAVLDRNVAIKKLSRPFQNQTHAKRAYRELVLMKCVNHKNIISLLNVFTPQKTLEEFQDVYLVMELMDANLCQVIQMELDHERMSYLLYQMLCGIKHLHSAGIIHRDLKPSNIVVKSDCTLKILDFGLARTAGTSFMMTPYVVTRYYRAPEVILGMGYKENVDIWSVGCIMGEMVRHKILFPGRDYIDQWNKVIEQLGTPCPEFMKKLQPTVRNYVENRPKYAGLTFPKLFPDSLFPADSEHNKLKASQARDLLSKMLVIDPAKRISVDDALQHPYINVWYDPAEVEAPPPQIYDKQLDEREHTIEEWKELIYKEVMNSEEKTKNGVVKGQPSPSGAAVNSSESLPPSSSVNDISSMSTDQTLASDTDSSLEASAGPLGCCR

SMILES | IC50 [1] | IC50 [2] | IC50 [3] | IC50 [4] | remaining at 1 h [5] | remaining at 1 h [6] | half-life [7] | half-life [8] | solubility [9] | IC50 [10] | solubility thermodynamic [11] | Vd [12] | clearance [13] | solubility [14]
COc1ccc(Nc2ncc3nc(Nc4ccc(F)cc4F)n(C4CCCC4)c3n2)cc1 | 130 nM | 2500 nM | 140 nM | 1300 nM | > 70% | > 70% | – | – | – | – | – | – | – | –
COc1ccc(Nc2ncc3nc(Nc4c(F)cccc4F)n(C4CCCC4)c3n2)cc1 | 46 nM | 1100 nM | 130 nM | 3500 nM | > 70% | > 70% | – | – | – | – | – | – | – | –
CNc1ncc2nc(Nc3ccccc3F)n(C3CCCC3)c2n1 | 360 nM | 6300 nM | 680 nM | > 30000 nM | – | – | – | – | – | – | – | – | – | –
CCNc1ncc2nc(Nc3ccccc3F)n(C3CCCC3)c2n1 | 140 nM | 1800 nM | 260 nM | 2600 nM | – | – | – | – | – | – | – | – | – | –
CC(C)Nc1ncc2nc(Nc3ccccc3F)n(C3CCCC3)c2n1 | 66 nM | 800 nM | 110 nM | 1200 nM | – | – | – | – | – | – | – | – | – | –
Fc1ccccc1Nc1nc2cnc(NC3CCCCC3)nc2n1C1CCCC1 | 46 nM | 580 nM | 50 nM | 1500 nM | – | – | – | – | – | – | – | – | – | –
O[C@H]1CC[C@H](Nc2ncc3nc(Nc4ccccc4F)n(C4CCCC4)c3n2)CC1 | 10 nM | 75 nM | 12 nM | 510 nM | – | – | – | – | < 2.5 µg/mL | – | – | – | – | –
N[C@H]1CC[C@H](Nc2ncc3nc(Nc4ccccc4F)n(C4CCCC4)c3n2)CC1 | 26 nM | 230 nM | 31 nM | 210 nM | – | – | – | – | – | 300 nM | 869 µg/mL (≈ 2120 µM) | – | – | –
N[C@H]1CC[C@H](Nc2ncc3nc(Nc4c(F)cccc4F)n(C4CCCC4)c3n2)CC1 | 9 nM | 91 nM | 13 nM | 490 nM | – | – | – | – | – | 210 nM | 852 µg/mL (≈ 1990 µM) | 66 L/kg | 118 mL/min/kg | –
N[C@H]1CC[C@H](Nc2ncc3nc(Nc4c(F)cc(F)cc4F)n(C4CCCC4)c3n2)CC1 | 11 nM | 150 nM | 16 nM | 490 nM | – | – | – | – | – | 240 nM | > 1000 µg/mL | 90 L/kg | 88 mL/min/kg | –
Cl.N[C@H]1CC[C@H](Nc2ncc3nc(Nc4ccc(F)cc4F)n(C4CCCC4)c3n2)CC1 | – | – | – | – | – | – | – | – | – | – | – | – | – | 5.7 µg/mL

Further lines, with some results ahead:

IC50 [1] | IC50 [2] | IC50 [3] | IC50 [4] | remaining at 1 h [5] | remaining at 1 h [6] | half-life [7] | half-life [8] | solubility [9] | IC50 [10] | solubility thermodynamic [11] | Vd [12] | clearance [13] | SMILES | solubility [14]
800 nM | > 10000 nM | > 1000 nM | > 30000 nM | > 70% | > 70% | – | – | – | – | – | – | – | COc1ccc(Nc2ncc3nc(Nc4ccccc4)n(C4CCCC4)c3n2)cc1 | –
120 nM | 1100 nM | – | > 3000 nM | 86% | 35% | 1.68 h | 1.03 h | 447 µg/mL (≈ 1070 µM) | – | – | – | – | COc1ccc(Nc2ncc3nc(Nc4ccccc4F)n(C4CCCC4)c3n2)cc1 | –
> 10000 nM | > 10000 nM | > 10000 nM | > 30000 nM | > 70% | > 70% | – | – | – | – | – | – | – | COc1ccc(Nc2ncc3nc(Nc4ccccc4Cl)n(C4CCCC4)c3n2)cc1 | –
430 nM | 3600 nM | 360 nM | 9300 nM | – | – | – | – | – | – | – | – | – | CCn1c(Nc2ccccc2F)nc2cnc(Nc3ccc(OC)cc3)nc21 | –
83 nM | 840 nM | 96 nM | 2100 nM | – | – | – | – | – | – | – | – | – | COc1ccc(Nc2ncc3nc(Nc4ccccc4F)n(C(C)C)c3n2)cc1 | –
140 nM | 2900 nM | 360 nM | > 3000 nM | – | – | – | – | – | – | – | – | – | COc1ccc(Nc2ncc3nc(Nc4ccccc4F)n(C4CCCCC4)c3n2)cc1 | –
1000 nM | > 10000 nM | > 300 nM | > 3000 nM | – | – | – | – | – | – | – | – | – | COc1ccc(Nc2ncc3nc(Nc4ccccc4F)n(-c4ccccc4)c3n2)cc1 | –
240 nM | 2600 nM | 240 nM | 210 nM | – | – | – | – | – | – | – | – | – | COc1ccc(Nc2ncc3nc(Nc4ccccc4F)n([C@H]4CC[C@H](N)CC4)c3n2)cc1 | –
14 nM | 160 nM | 17 nM | 1600 nM | – | – | – | – | – | – | – | – | – | COc1ccc(Nc2ncc3nc(Nc4ccccc4F)n([C@H]4CC[C@@H](O)CC4)c3n2)cc1 | –
52 nM | 490 nM | 63 nM | 2800 nM | – | – | – | – | – | – | – | – | – | COc1ccc(Nc2ncc3nc(Nc4ccccc4F)n(C4CCOCC4)c3n2)cc1 | –
22 nM | 180 nM | 24 nM | 240 nM | – | – | – | – | – | – | – | – | – | COc1ccc(Nc2ncc3nc(Nc4ccccc4F)n([C@H]4CC[C@@H](C(N)=O)CC4)c3n2)cc1 | –
